# Measurements as given in PMC7217877, “N-AS-triggered SPMs are direct regulators of microglia in a model of Alzheimer’s disease” (Nature Communications, 2020).
# Several values for one entry are separate records, joined by “and”; a condition that tells them apart may be missing. Identical values can stand only once.
# Key:
# [1] = tested on: APP/PS1 mice; test: open field test (Supplementary Fig 7f-i); type: in vivo, mouse; set-up: open field test, sFig 7f (sheet untitled): unit not given here
# Protocol: Transgenic mouse lines over-expressing the hAPP695swe (APP) and presenilin-1M146V (PS1) mutations were originated from GlaxoSmithKline (Harlow, UK)[32] and maintained as described previously. We purchased 5×FAD mice from Jackson Labs (Stock number. 34840-JAX). Because APP/PS1 and 5xFAD mice show sex differences in disease progression, we used only male mice. To examine possible therapeutic effect of N-AS and aspirin in APP/PS1 mice, the N-AS (30 mg kg^−1, Sigma-Aldrich, 01912) was injected daily s.c. for 8 weeks to 7-months-old APP/PS1 mice until the age of 9 months, and aspirin (2 mg kg^−1, Sigma-Aldrich, A5376)[33] was administrated orally to 7-months-old APP/PS1 mice for 8 weeks. […] Block randomization method was used to allocate the animals to experimental groups. To eliminate the bias, we were blinded in experimental progress such as data collection and data analysis. Mice were housed at temperature of 22 °C and a 12 h day/12 h night cycle with free access to tap water and food pellets. All protocols were approved by the Kyungpook National University Institutional Animal Care and Use Committee. […] Freezing was analyzed for 5 min. […] Overall activity in the box was measured, and the amount of time and distance traveled in the center arena was noted. […] The total number of transitions, latency to first enter the light chamber, distance traveled, and time spent in each chamber were recorded.
# [2] = tested on: APP/PS1 mice; test: flow cytometry of brain microglia polarity (CD86/CD206, Fig 4e); type: in vivo, mouse; settings: APP/PS1 + N-AS, individual values
# Protocol: Transgenic mouse lines over-expressing the hAPP695swe (APP) and presenilin-1M146V (PS1) mutations were originated from GlaxoSmithKline (Harlow, UK)[32] and maintained as described previously. We purchased 5×FAD mice from Jackson Labs (Stock number. 34840-JAX). Because APP/PS1 and 5xFAD mice show sex differences in disease progression, we used only male mice. To examine possible therapeutic effect of N-AS and aspirin in APP/PS1 mice, the N-AS (30 mg kg^−1, Sigma-Aldrich, 01912) was injected daily s.c. for 8 weeks to 7-months-old APP/PS1 mice until the age of 9 months, and aspirin (2 mg kg^−1, Sigma-Aldrich, A5376)[33] was administrated orally to 7-months-old APP/PS1 mice for 8 weeks. Also, to confirm possible therapeutic efficacy of N-AS in 5×FAD, the N-AS (30 mg kg^−1, Sigma-Aldrich, 01912) was injected daily s.c. for 4 weeks to 3-months-old 5×FAD mice until the age of 4 months. Block randomization method was used to allocate the animals to experimental groups. To eliminate the bias, we were blinded in experimental progress such as data collection and data analysis. Mice were housed at temperature of 22 °C and a 12 h day/12 h night cycle with free access to tap water and food pellets. All protocols were approved by the Kyungpook National University Institutional Animal Care and Use Committee.
# Brain microglia polarity and immune cells in brain and blood were analyzed by flow cytometry. Cells from WT, APP/PS1, and APP/PS1 treated with N-AS mice brain were prepared as previously described with minor modifications. Brains of WT, APP/PS1, and APP/PS1 treated with N-AS mice were dissected and immediately transferred in ice-cold HBSS (Gibco). After gentle mincing, the brain was digested in a HBSS solution containing collagenase P (0.2 mg ml^−1, Roche), dispase II (0.8 mg ml^−1, Roche), DNase I (0.01 mg ml^−1, Roche), and collagenase A (0.3 mg ml^−1, Roche) at 37 °C for 1 h under gentle rocking. […] Red blood cells were lysed once at 4 °C for 10 min in 0.15 M NH4Cl ([…] Technologies), washed once with PBS (Gibco), and counted using cell counter (Logos biosystems). […]
structure (smiles),measurement,setting,value
"CCCCCCCCCCCCC/C=C/[C@@H](O)[C@H](CO)NC(C)=O [N-AS, N-((2S,3R,E)-1,3-Dihydroxyoctadec-4-en-2-yl)acetamide]","open field test, sFig 7f (sheet untitled)","[1]; APP/PS1 + N-AS, sums to 600 with sFig 7g",520.5 and 509.5 and 517.5 and 503.5 and 522.5 and 508 and 406.5 and 460.5
same,"locomotion and spontaneous activity, open field test",[1]; N-AS vs APP/PS1,improved locomotion and spontaneous activity
same,calculated percentage of CD86+ CD206+ cells,[2],1.29 and 0.77 and 0.87 and 1.7 and 1.28 and 1.46
same,calculated percentage of CD86+ CD206- (pro-inflammatory microglia) cells,[2],0.012 and 0.071 and 0.011 and 0.023 and 0.034 and 0.025
same,calculated percentage of CD86- CD206+ (anti-inflammatory microglia) cells,[2],3.06 and 1.43 and 2.01 and 2.77 and 2.35 and 2.46
